Assay results reported in patent publication US20050180954A1, “Drug for treating bone disorders” (priority 1995, published 2005).

Columns and labels:
MC3T3-E1 cells [1] = experiment: Quantification of calcium in calcified foci of MC3T3-E1; assay type: cell-based, mouse; conditions: 1000 units/ml; MC3T3-E1, Day 14
Description: MC3T3-E1 cells were placed in each well in 24-well plates in an amount of 50,000 cells/well and cultured to confluency. The medium was removed and fresh α-MEM containing 10% JCS, 50 μg/ml of L-ascorbic acid and 10 mM β-glycerophosphate was added in an amount of 0.9 ml/well, followed by adding 0.1 ml/well of medium containing varying concentration of IFN. The medium was replaced with IFN-free medium every 4 days. On Day 14, the medium was removed and the cells were lightly washed with Hank's solution. Anhydrous ethanol was added in an amount of 1 ml/well and fixation was carried out at room temperature for 15 minuets. Then the anhydrous ethanol was replaced with fresh anhydrous ethanol in an amount of 1 ml/well and 5 minutes later, each well was dried in the air. Then 1N hydrochloric acid was added in an amount of 1 ml/well and extraction was carried out at room temperature for 30 minutes. The total contents of each well were transferred to an Eppendorf tube and centrifuged at 1800×g at 4° C. for 10 minutes The amount of calcium in the supernatant was measured by Calcium C Test Wako and the amount of inorganic phosphorus in the supernatant was measured by Phospha B Test Wako. […] The IC50 value was as low as about 10 units/ml (FIG. 5).

MC3T3-E1 cells [2] = experiment: Mineralization of murine osteoblasts, Von Kossa stain (in vitro single administration); assay type: cell-based, mouse; conditions: Day 14
Description: As the parameters for evaluation of differentiation ability, alkaline phosphatase (ALPase) and mineralization were employed. Detection of alkaline phosphatase which is a marker of differentiation of osteoblasts was carried out on Day 8 from the beginning of the culturing by staining method. Evaluation of mineralization was carried out as follows. That is, MC3T3-E1 cells were placed in each well of 24-well plates in an amount of 50,000 cells/ml (10 times in the case of anti-cell test in Example 3). On Day 4, after confirming that the cells sufficiently reached confluency, the medium was discarded and fresh α-MEM containing 10% JCS, 50 μg/ml of L-ascorbic acid and 10 mM β-glycerophosphate was added in an amount of 0.9 ml/well, followed by adding medium containing varying concentration of IFN. Four days later, the medium was replaced with IFN-free medium, and the medium was replaced with IFN-free medium every 4 days. On Day 14, Von Kossa stain was performed to visualize the calcified foci. Expression of alkaline phosphatase activity which is a differentiation marker is an indispensable step to the subsequent mineralization.

[3] = test system: ovariectomized mice of ddy strain; experiment: Osteoporosis model mice: urinary D-Pyr (bone resorption marker); assay type: in vivo, mouse; conditions: for amount of excreted urinary D-Pyr compensated with urinary creatinine: ovariectomized mice, Week 4
Description: (§1) Female mice of ddy strain of 8 weeks old were divided into 5 groups and experiment was carried out. Bilateral ovariectomy was performed on the mice in 3 groups and sham operation alone was performed on the mice in 2 groups. Thereafter, the mice were raised with normal diet for 1 month, thereby making the state of osteoporosis in the ovariectomized groups. In this model, it is known that the mice become the state of osteoporosis 2 to 3 weeks after the ovariectomy (T. Hosaka et al., ANITEX, Vol. 5, 243, 1992; Miyaura, C. et al., J. Bone Mineral Res., 10, 1365, 1995). From the third weeks from the ovariectomy, murine IFN was subcutaneously administered (100 μl/head/time) once per day, totally 25 times. On Day 30 from the beginning of administration, under ether anesthesia, body weight was measured, blood was collected, and femur was collected and dry bone weight thereof was measured for each mouse.
Drying of femur was performed as follows. That is, femur was fixed with 2 ml of 70% ethanol per one taken out femur at room temperature for 24 hours and then the attached muscles and connective tissues were carefully removed with a forceps and surgical knife with replaceable blade. After immersing the femur in fresh 70% ethanol for 72 hours at room temperature, the femur was dried in a hot wind-generating incubator (Koukensha Engineering. Co., Tokyo) at 55° C. for 24 hours. The weight of the dried bone was measured with an electronic force balance (Mettler AE50, Metteler Instrumente AG, Switzerland). Murine IFN to be administered was diluted to the desired concentration with physiological saline. During the test, urine of mice was collected with metabolic cage (KN-645, Natsumeseisakusho, Tokyo) and frozen to store. To one group subjected to the sham operation, physiological saline (Otsuka Pharmaceutical Co.) was administered, and to another group subjected to the sham operation, murine IFNβ was administered at a dose of 10^5 units/head/time (diluted with physiological saline when use). […]

[4] = Osteoporosis model mice: change in body weight; assay type: in vivo, mouse; conditions: administration continuously for 4 weeks at a dose exhibiting the therapeutic effect
Description: as §1
It is well-known that the increase and decrease in the amount of urinary D-Pyr excreted in urine, which is a crosslinked substance of bone collagen, is an excellent marker reflecting the degree of degradation of bone collagen, that is, the degree of bone resorption (C. P. Jerome et al., Bone and Mineral, 19, 117-125, 1992). For measurement of urinary D-Pyr, a commercially available kit (PYRILINKS-D Assay, METRA BIOSYSTEMS) was used. […]

MuIFNβ: murine interferon β, Lot M-0034, prepared by Toray Industries, Inc. by genetic engineering technique
calcium deposition smaller than the control (MC3T3-E1 cells [1]): 20%
influence on mineralization (calcified foci, Von Kossa stain) (MC3T3-E1 cells [2]): mineralization proceeded without substantial influence
amount of excreted urinary D-Pyr compensated with urinary creatinine ([3]; 10^3 units/head/time): inhibition of bone resorption was observed
amount of excreted urinary D-Pyr compensated with urinary creatinine ([3]; 10^5 units/head/time): inhibition of bone resorption was observed
inhibition of excretion of urinary deoxypyridinoline ([3]; sham operation groups): is exhibited also in the sham operation groups
change in body weight [4]: no problematic change in body weight was observed in any group
